Test results published in ChEMBL document CHEMBL5370661, “Development of Fluorescent AF64394 Analogues Enables Real-Time Binding Studies for the Orphan Class A GPCR GPR3” (J Med Chem, 2023).
The source made the active and inactive calls. No cut-off for these calls is given here.

Tests used:
[1] = target: T1, G-protein coupled receptor 3 (Homo sapiens, UniProt P46089); assay: Binding affinity to N-terminal 3xHA/Nluc-tagged full-length wild-type human GPR3 expressed in HEK293A cells using vivazine as substrate by time-course saturation based NanoBRET assay; type: cell-based; conditions: HEK293-A, time 180.0 min, TDE = time-dependent effect
[2] = target: T1, G-protein coupled receptor 3; assay: Binding affinity to N-terminal 3xHA/Nluc-tagged full-length wild-type human GPR3 expressed in HEK293A cells using vivazine as substrate measured for 180 mins by time-course saturation based NanoBRET assay; type: cell-based; conditions: for Activity: HEK293-A
[3] = target: T1, G-protein coupled receptor 3; assay: Binding affinity to N-terminal 3xHA/Nluc-tagged full-length wild-type human GPR3 expressed in HEK293A cells using vivazine as substrate at <=30 uM measured for 180 mins by time-course saturation based NanoBRET assay; type: cell-based; conditions: HEK293-A
[4] = target: T1, G-protein coupled receptor 3; assay: Total binding affinity to N-terminal 3xHA/Nluc-tagged full-length wild-type human GPR3 expressed in HEK293A cells using furimazine as substrate measured for 3 hrs by NanoBRET assay; type: cell-based, HEK293-A
[5] = Chemical stability of compound in DMSO assessed as compound degradation incubated for 104 days by RP-HPLC analysis; type: physicochemical; conditions: 2496 h; time 104 day
[6] = target: T1, G-protein coupled receptor 3; assay: Specific binding affinity to N-terminal 3xHA/Nluc-tagged full-length wild-type human GPR3 expressed in HEK293A cells using furimazine as substrate measured for 3 hrs by NanoBRET assay; type: cell-based, HEK293-A
[7] = Specific binding affinity to N-terminal 3xHA/Nluc-tagged full-length wild-type human GPR12 expressed in HEK293A cells using furimazine as substrate measured for 3 hrs by NanoBRET assay; type: cell-based; conditions: hek293-a
[8] = target: T2, G-protein coupled receptor 6 (Homo sapiens, UniProt P46095); assay: Specific binding affinity to full-length wild-type human brain GPR6 expressed in HEK293A cells using furimazine as substrate measured for 3 hrs by NanoBRET assay; type: cell-based, HEK293-A
[9] = target: T1, G-protein coupled receptor 3; assay: Competitive total binding affinity to N-terminal 3xHA/Nluc-tagged full-length wild-type human GPR3 expressed in HEK293A cells using furimazine as substrate at 1 uM measured for 3 hrs in presence of AF64394 by NanoBRET assay; type: cell-based, HEK293-A
[10] = target: T2, G-protein coupled receptor 6; assay: Competitive total binding affinity to full-length wild-type human brain GPR6 expressed in HEK293A cells using furimazine as substrate at 1 uM measured for 3 hrs in presence of CVN424 by NanoBRET assay; type: cell-based, HEK293-A
[11] = target: T1, G-protein coupled receptor 3; assay: Modulation of N-terminal 3xHA/Nluc-tagged full-length wild-type human GPR3 expressed in HEK293A cells using furimazine as substrate at 1 uM measured for 3 hrs in presence of DPI by NanoBRET assay; type: cell-based, HEK293-A
[12] = target: T1, G-protein coupled receptor 3; assay: Binding affinity to N-terminal 3xHA/Nluc-tagged full-length wild-type human GPR3 expressed in HEK293A cells using vivazine as substrate assessed as increase in BRET ratio by time-course saturation based NanoBRET assay; type: cell-based; conditions: HEK293-A, filed as modulator
[13] = target: T1, G-protein coupled receptor 3; assay: Inverse agonist activity at N-terminal 3xHA/Nluc-tagged full-length wild-type human GPR3 expressed in HEK293A cells co-expressing Fluc-tagged CRE assessed as reduction in CRE gene expression at 10 uM incubated for 24 hrs by luciferase based assay; type: functional, cell-based; conditions: HEK293-A, filed as inverse agonist
HEK293-A [14] = assay: Downregulation of CRE gene activity in HEK293-A cells expressing GPR6 incubated for 24 hrs by luciferase based assay; type: functional, cell-based; conditions: Homo sapiens
HEK293-A [15] = assay: Downregulation of CRE gene activity in HEK293-A cells expressing GPR12 incubated for 24 hrs by luciferase based assay; type: functional, cell-based; conditions: Homo sapiens
[16] = system: G-protein coupled receptor 3 (Homo sapiens), P46089 [V186W,V187W,Y188W]; assay: Binding affinity to Nluc-tagged GPR3 V186W/V187W/Y188W mutant (unknown origin) expressed in HEK293A cells assessed as decrease in cAMP level by biosensor based FRET assay; type: cell-based; conditions: HEK293-A
[17] = system: G-protein coupled receptor 3 (Homo sapiens), P46089 [Y188W]; assay: Binding affinity to Nluc-tagged GPR3 Y188W mutant (unknown origin) expressed in HEK293A cells assessed as decrease in cAMP level by biosensor based FRET assay; type: cell-based; conditions: HEK293-A, filed as modulator
[18] = system: G-protein coupled receptor 3 (Homo sapiens), P46089 [V187W,Y188W]; assay: Binding affinity to Nluc-tagged GPR3 V187W/Y188W mutant (unknown origin) expressed in HEK293A cells assessed as decrease in cAMP level by biosensor based FRET assay; type: cell-based; conditions: HEK293-A, filed as modulator
HEK293-A [19] = assay: Binding affinity to Nluc-tagged GPR3 T279A/Y280A mutant (unknown origin) expressed in HEK293A cells assessed as decrease in cAMP level by biosensor based FRET assay; type: cell-based; conditions: Homo sapiens, filed as modulator
[20] = target: T1, G-protein coupled receptor 3; assay: Binding affinity to N-terminal 3xHA/Nluc-tagged full-length wild-type human GPR3 expressed in HEK293A cells assessed as increase in BRET ratio incubated for 180 mins by NanoBRET assay; type: cell-based; conditions: HEK293-A
[21] = target: T1, G-protein coupled receptor 3; assay: Binding affinity to N-terminal 3xHA/Nluc-tagged full-length wild-type human GPR3 expressed in HEK293A cells using vivazine as substrate at <10 uM measured for 180 mins by time-course saturation based NanoBRET assay; type: cell-based; conditions: HEK293-A
[22] = Chemical stability of compound in aqueous solution assessed as compound degradation incubated for 104 days by RP-HPLC analysis; type: physicochemical; conditions: buffer, 2496 h; time 104 day
[23] = target: T1, G-protein coupled receptor 3; assay: Binding affinity to N-terminal 3xHA/Nluc-tagged full-length wild-type human GPR3 expressed in HEK293A cells using vivazine as substrate at 20 to 30 uM measured for 180 mins by time-course saturation based NanoBRET assay; type: cell-based; conditions: HEK293-A, dose 20-30 µM

T2 sequence (P46095 whole entry): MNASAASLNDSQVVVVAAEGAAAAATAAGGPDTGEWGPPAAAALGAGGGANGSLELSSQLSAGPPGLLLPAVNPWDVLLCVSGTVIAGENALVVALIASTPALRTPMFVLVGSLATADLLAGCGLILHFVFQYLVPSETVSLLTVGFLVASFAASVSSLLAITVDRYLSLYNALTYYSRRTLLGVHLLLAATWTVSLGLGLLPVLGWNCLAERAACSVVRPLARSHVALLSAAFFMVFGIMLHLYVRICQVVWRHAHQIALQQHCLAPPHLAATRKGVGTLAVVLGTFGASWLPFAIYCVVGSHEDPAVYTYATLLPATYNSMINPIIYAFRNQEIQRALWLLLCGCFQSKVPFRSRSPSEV
T1 sequence (P46089 whole entry): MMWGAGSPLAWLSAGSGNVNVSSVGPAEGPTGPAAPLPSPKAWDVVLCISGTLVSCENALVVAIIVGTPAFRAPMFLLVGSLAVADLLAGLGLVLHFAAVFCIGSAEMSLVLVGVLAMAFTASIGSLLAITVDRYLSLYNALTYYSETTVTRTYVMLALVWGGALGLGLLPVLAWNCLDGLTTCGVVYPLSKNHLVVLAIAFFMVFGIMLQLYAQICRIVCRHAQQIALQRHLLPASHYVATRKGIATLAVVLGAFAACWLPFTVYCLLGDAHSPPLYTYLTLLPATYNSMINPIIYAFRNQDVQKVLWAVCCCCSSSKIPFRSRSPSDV
G-protein coupled receptor 3 (Homo sapiens), P46089 [V186W,V187W,Y188W], sequence (P46089 whole entry V186W/V187W/Y188W): as the sequence (P46089 whole entry) above, with V186W, V187W, Y188W counted along it
G-protein coupled receptor 3 (Homo sapiens), P46089 [Y188W], sequence (P46089 whole entry Y188W): as the sequence (P46089 whole entry) above, with Y188W counted along it
G-protein coupled receptor 3 (Homo sapiens), P46089 [V187W,Y188W], sequence (P46089 whole entry V187W/Y188W): as the sequence (P46089 whole entry) above, with V187W, Y188W counted along it

Structure (SMILES) | Activity [1] | Activity [2] | Activity [3] | EC50 [4] [nM] | further results
CC(C)Oc1cc(Cl)ccc1CNc1cc(-c2ccc(OCCCCCCNC(=O)c3ccc(-c4c5ccc(N(C)C)cc5[o+]c5cc(N(C)C)ccc45)c(C(=O)[O-])c3)cc2)nc2ncnn12 | Tde | Dose-Dependent Effect | Active | 11200 | 
CC(C)Oc1cc(Cl)ccc1CNc1cc(-c2cccc(OCCCCCCNC(=O)c3ccc(-c4c5ccc(N(C)C)cc5[o+]c5cc(N(C)C)ccc45)c(C(=O)[O-])c3)c2)nc2ncnn12 | Tde | Dose-Dependent Effect | Active | 4470 | Stability [5]: Stable
CC(C)Oc1cc(Cl)ccc1CNc1cc(-c2ccccc2OCCCCCCNC(=O)c2ccc(-c3c4ccc(N(C)C)cc4[o+]c4cc(N(C)C)ccc34)c(C(=O)[O-])c2)nc2ncnn12 |  |  |  | 891 | Kd [6]: 302 nM; Activity ([1]; filed as modulator): Tde; Kd [2]: 102 nM; Activity ([2]; filed as modulator): Dose-Dependent Effect; Activity ([3]; filed as modulator): Active; pKd [7]: 7.12; Kd [8]: 66.1 nM; IC50 [9]: 1260 nM; Ki [9]: 295 nM; IC50 [10]: 214 nM; Ki [10]: 13.2 nM; EC50 [11]: 1410 nM; Activity [12]: Dose-Dependent Effect; Activity [13]: Active; Activity (HEK293-A [14]): Active; Activity (HEK293-A [15]): Active; Activity ([16]; filed as modulator): Active; Activity [17]: Active; Activity [18]: Active; Activity (HEK293-A [19]): Active
COCC[N+]1=C(/C=C/C=C2/N(CCCCCC(=O)NCCOCCOCCOCCOCCOCCOc3ccccc3-c3cc(NCc4ccc(Cl)cc4OC(C)C)n4ncnc4n3)c3ccc(S(=O)(=O)O)cc3C2(C)CCCS(=O)(=O)O)C(C)(CCCS(=O)(=O)O)c2cc(S(=O)(=O)[O-])ccc21 (configuration not stated) |  | inactive |  | > 31600 | 
CC(C)Oc1cc(Cl)ccc1CNc1cc(-c2cc(F)ccc2Cl)nc2ncnn12 |  |  |  |  | Activity [13]: Active; Activity [16]: inactive
CN(C)c1ccc2c(-c3ccc(C(=O)NCCCC(=O)Nc4ccc(CCN5CN(c6ccccc6)C6(CCN(CCCC(=O)c7ccc(F)cc7)CC6)C5=O)cc4)cc3C(=O)[O-])c3ccc(N(C)C)cc3[o+]c2c1 |  |  |  |  | Activity [20]: inactive
CC(C)Oc1cc(Cl)ccc1CNc1cc(-c2ccc(OCCOCCOCCOCCNC(=O)c3ccc(-c4c5ccc(N(C)C)cc5[o+]c5cc(N(C)C)ccc45)c(C(=O)[O-])c3)cc2)nc2ncnn12 | Tde | Dose-Dependent Effect | Active | > 10000 | Activity [21]: inactive
CC(C)Oc1cc(Cl)ccc1CNc1cc(-c2ccccc2OCCOCCOCCOCCNC(=O)CCCCCN2/C(=C/C=C/C3=[N+](CCOO)c4ccc(S(=O)(=O)O)cc4C3(C)CCCS(=O)(=O)[O-])C(C)(CCCS(=O)(=O)O)c3cc(S(=O)(=O)O)ccc32)nc2ncnn12 (configuration not stated) |  | inactive |  | > 31600 | 
CC(C)Oc1cc(Cl)ccc1CNc1cc(-c2cccc(OCCOCCOCCOCCNC(=O)c3ccc(-c4c5ccc(N(C)C)cc5[o+]c5cc(N(C)C)ccc45)c(C(=O)[O-])c3)c2)nc2ncnn12 | Tde | Dose-Dependent Effect | Active | > 10000 | Activity [21]: inactive
CC(C)Oc1cc(Cl)ccc1CNc1cc(-c2ccccc2OCCOCCOCCOCCNC(=O)c2ccc(-c3c4ccc(N(C)C)cc4[o+]c4cc(N(C)C)ccc34)c(C(=O)[O-])c2)nc2ncnn12 | Tde | Dose-Dependent Effect | Active | 3390 | Stability [22]: Stable; Activity [23]: inactive
COCC[N+]1=C(/C=C/C=C2/N(CCCCCC(=O)NCCOCCOCCOCCOc3ccc(-c4cc(NCc5ccc(Cl)cc5OC(C)C)n5ncnc5n4)cc3)c3ccc(S(=O)(=O)O)cc3C2(C)CCCS(=O)(=O)O)C(C)(CCCS(=O)(=O)O)c2cc(S(=O)(=O)[O-])ccc21 (configuration not stated) |  | inactive |  | > 31600 | 
CC(C)Oc1cc(Cl)ccc1CNc1cc(-c2ccccc2OCCOCCOCCOCCOCCOCCNC(=O)c2ccc(-c3c4ccc(N(C)C)cc4[o+]c4cc(N(C)C)ccc34)c(C(=O)[O-])c2)nc2ncnn12 | Tde | Dose-Dependent Effect | Active | 4470 | Activity [23]: inactive
COCC[N+]1=C(/C=C/C=C2/N(CCCCCC(=O)NCCOCCOCCOCCOc3cccc(-c4cc(NCc5ccc(Cl)cc5OC(C)C)n5ncnc5n4)c3)c3ccc(S(=O)(=O)O)cc3C2(C)CCCS(=O)(=O)O)C(C)(CCCS(=O)(=O)O)c2cc(S(=O)(=O)[O-])ccc21 (configuration not stated) |  | inactive |  | > 31600 | 
